Measured values: patent publication US20100098632A1, “HYDROXYAPATITE PARTICLES” (priority 2006, published 2010)

Tests used:
[1] = In vivo biodistribution of Sm-HAP by gamma camera / microSPECT-CT imaging; details: mice, intravenous, 200 μCi for Sm-HAP
Description: FIG. 1 contains photographs of the distribution of Sm-HAP uptake in mice. […] The mouse was injected intravenously with Sm-153 HA nanoparticles synthesized at 50° C. Imaging was performed 2 hours post injection.
FIG. 2 contains a photograph of the distribution of Sm-153 EDTMP determined via non-invasive imaging using a small animal gamma camera (X-SPECT).
To determine the in vivo biodistribution of Sm-HAP, 200 μCi of Sm-HAP were administered intravenously to mice in 150 to 200 μL. The mice were imaged non-invasively using a microSPECT/CT machine.

[2] = Labeling of preformed hydroxyapatite particles by incubation with Sm-153-EDTMP; assay type: physicochemical; details: 1 mg particles with 200 μCi for up to 2 hours at room temperature
Description: The unlabeled, hydroxyapatite particles were incubated with Sm-153-EDTMP. Briefly, 1 mg of hydroxyapatite particles was incubated with 200 μCi of Sm-153-EDTMP for up to 2 hours at room temperature (25° C.). The resulting hydroxyapatite particles were spun down and resuspended in 10 mM Tris buffer pH 7.2. The amount of Sm-153 radioactivity in the hydroxyapatite particles was determined and found to be negligible.

Hep3B/Fluc = assay: Mouse liver cancer model, bioluminescent tumor imaging; assay type: in vivo, Nude mice; details: intrahepatic Hep3B/Fluc, treatment day seven, intravenous
Description: Experiments were performed to evaluate Sm-153-hydroxyapatite particles (Sm-HAP) alone or in combination with PS-341, a radiosensitizer drug, in a mouse liver cancer model. Nude mice were injected intrahepatically with Hep3B/Fluc, a human hepatocellular carcinoma cell line expressing Firefly luciferase. Tumor growth was determined using a Xenogen Bioluminescent IVIS 200 Imaging System. On day seven after tumor implantation, mice were injected intravenously via the tail vein with 200 μg HAP, 0.5 mCi free Sm-153-EDTMP, 0.5 mCi Sm-HAP alone, or 0.5 mCi Sm-HAP in combination with two intraperitoneal doses of 0.5 mg/kg PS-341, the first administered one day prior to Sm-HAP administration and the second administered one day after Sm-HAP administration. […] In contrast, tumors in mice treated with the combination therapy (Sm-HAP and two doses of PS-341) regressed, as evidenced by a decrease in the signal (FIG. 7).

[3] = Clodronate loading on hydroxyapatite particles; assay type: physicochemical; details: for binding (loading) efficiency of clodronate to HA: 20 mg clodronate per 1 mg particles, disodium salt
Description: Clodronate (dichloromethylenediphosphonic acid disodium salt; Sigma, St. Louis, Mo.) was dissolved in distilled water (200 mg/mL) and 20 mg was added to 1 mg of hydroxyapatite particles. The mixture was incubated for 30 minutes. After hydroxyapatite particle binding, free clodronate in the supernatant was complexed with copper (II) ions (Cu^2) in nitric acid solution and the concentration was assayed by ultraviolet spectrophotometry as described elsewhere (Ostovic et al., Pharm Res., 10:470-472 (1993)). The amount of clodronate bound to hydroxyapatite particles was calculated by subtracting free clodronate from input clodronate.
The feasibility of utilizing the HA-biphosphonate interaction for drug loading onto the particles also was tested. Twenty milligrams of clodronate, a biphosphonate, was mixed with 1 mg of hydroxyapatite particles (40 nm in size) in 10 mM Tris-Cl buffer (pH 7.2), and the mixture was incubated with continuous shaking at room temperature for 30 minutes. Clodronate could be loaded onto hydroxyapatite particles at 10% efficiency (2 mg clodronate/mg HAP; n=3). […] The clodronate that was loaded on hydroxyapatite particles remained biologically active.

| SMILES | in vivo biodistribution (uptake sites by imaging) [1] | amount of Sm-153 radioactivity in the hydroxyapatite particles [2] | tumor course by bioluminescent signal (Hep3B/Fluc) | final concentration of clodronate on HA ([3]; 40 nm HA) | binding (loading) efficiency of clodronate to HA ([3]; 40 nm HA) | binding (loading) efficiency of clodronate to HA ([3]; 40 nm HA, listed as clondronate) | clodronate loaded per mg particles ([3]; 40 nm, 10 mM Tris-Cl pH 7.2, 30 minutes, n=3) |
| --- | --- | --- | --- | --- | --- | --- | --- |
| O=P([O-])(O)CN(CCN(CP(=O)([O-])O)CP(=O)(O)O)CP(=O)([O-])O.[153Sm+3] [Sm-153-EDTMP] | binds to the skeleton of the mouse | negligible | progressed | – | – | – | – |
| O=P([O-])([O-])C(Cl)(Cl)P(=O)(O)O.[Na+].[Na+] [clodronate, dichloromethylenediphosphonic acid disodium salt] | – | – | – | 2 mg clodronate/mg HA | 10% | about 10% | 2 mg clodronate/mg HAP |
